ChEMBL document CHEMBL1121775, “Synthesis and antimalarial effects of N2-aryl-N4-[(dialkylamino)alkyl]- and N4-aryl-N2-[(dialkylamino)alkyl]-2,4-quinazolinediamines” (J Med Chem, 1981)
Values joined by “and” are separate entries in the source; they are usually repeats but may differ in a detail not shown here. Identical values can stand only once.

Experiments:
[1] = The ratio of SD90 of the quinine hydrochloride, to the SD90 of the test substance for the Dose of >34 mg/kg; assay type: functional
Plasmodium berghei [2] = assay: Antimalarial activity against trophozoite-induced Plasmodium berghei in mice (Mus musculus); assay type: functional
Plasmodium berghei [3] = assay: Antimalarial effect against trophozoite-induced Plasmodium berghei in mice (Mus musculus) after 40 mg/kg subcutaneous dose; assay type: functional
Plasmodium berghei [4] = assay: Antimalarial effect against trophozoite-induced Plasmodium berghei in mice (Mus musculus) after 20 mg/kg subcutaneous dose; assay type: functional
Plasmodium berghei [5] = assay: Antimalarial effect against trophozoite-induced Plasmodium berghei in mice (Mus musculus) at 80 mg/kg subcutaneous dose; assay type: functional
Mus musculus [6] = assay: Antimalarial effect against trophozoite induced Plasmodium berghei in mice (Mus musculus) at dosage of 320 mg/kg after subcutaneous administration; No. of mice (Mus musculus) surviving after 60 days 3; assay type: functional
Plasmodium berghei [7] = assay: Antimalarial activity against trophozoite-induced Plasmodium berghei in mice (Mus musculus) at 160 mg/kg subcutaneous dose; assay type: functional
Mus musculus [8] = assay: Number of mice cured at a subcutaneous dose of 320 mg/kg.; assay type: functional
Plasmodium berghei [9] = assay: (§1) Antimalarial effect against trophozoite-induced Plasmodium berghei in mice (Mus musculus) at 640 mg/kg subcutaneous dose; assay type: functional
Plasmodium berghei [10] = assay: Antimalarial effect against trophozoite-induced Plasmodium berghei in mice (Mus musculus) at 320 mg/kg subcutaneous dose; assay type: functional
Mus musculus [11] = assay: Number of mice cured at a dose of 640 mg/kg sc; assay type: functional; conditions: route subcutaneous
Plasmodium berghei [12] = assay: Antimalarial effect against trophozoite-induced Plasmodium berghei in mice (Mus musculus) at 160 mg/kg subcutaneous dose; assay type: functional
Mus musculus [13] = assay: Number of mice cured at a subcutaneous dose of 160 mg/kg.; assay type: functional
Mus musculus [14] = assay: Number of toxic deaths at a dose of 640 mg/kg; assay type: toxicity, organism-based; design: dose 640 mg/kg; conditions: in vivo
[15] = The ratio of SD90 of the quinine hydrochloride, to the SD90 of the test substance for the Dose of 45 mg/kg; assay type: functional
Mus musculus [16] = assay: Antimalarial effect against trophozoite-induced Plasmodium berghei in mice (Mus musculus) at dosage of 320 mg/kg after subcutaneous administration;; assay type: functional
Mus musculus [17] = assay: (§2) Number of toxic deaths at a dose of 160 mg/kg; assay type: toxicity, organism-based; design: dose 160 mg/kg; conditions: in vivo
Mus musculus [18] = assay: Number of toxic deaths at a dose of 320 mg/kg; assay type: toxicity, organism-based; design: dose 320 mg/kg; conditions: in vivo
Mus musculus [19] = assay: Antimalarial effect against trophozoite-induced Plasmodium berghei in mice (Mus musculus) at dosage of 160 mg/kg after subcutaneous administration; No. of mice (Mus musculus) surviving after 60 days 3; assay type: functional
Mus musculus [20] = assay: Antimalarial effect against trophozoite-induced Plasmodium berghei in mice (Mus musculus) at dosage of 320 mg/kg after subcutaneous administration; No. of mice (Mus musculus) surviving after 60 days 4; assay type: functional
[21] = The ratio of SD90 of the quinine hydrochloride, to the SD90 of the test substance for the Dose of 8.5 mg/kg; assay type: functional
Mus musculus [22] = assay: Antimalarial effect against trophozoite induced Plasmodium berghei in mice (Mus musculus) at dosage of 160 mg/kg after subcutaneous administration.; assay type: functional
Mus musculus [23] = assay: Number of mice cured at a subcutaneous dose of 640 mg/kg.; assay type: functional
Mus musculus [24] = assay: Antimalarial effect against trophozoite induced Plasmodium berghei in mice (Mus musculus) at dosage of 640 mg/kg after subcutaneous administration; No. of mice (Mus musculus) surviving after 60 days 2; assay type: functional
[25] = The ratio of SD90 of the quinine hydrochloride, to the SD90 of the test substance for the Dose of 68 mg/kg; assay type: functional
Plasmodium berghei [26] = assay: as §1; assay type: functional; conditions: 640 mg/kg
[27] = The ratio of SD90 of the quinine hydrochloride, to the SD90 of the test substance for the Dose of 80 mg/kg; assay type: functional
Mus musculus [28] = assay: as §2; assay type: functional
[29] = The ratio of SD90 of the quinine hydrochloride, to the SD90 of the test substance for the Dose of 155 mg/kg; assay type: functional
Mus musculus [30] = assay: Antimalarial effect against trophozoite-induced Plasmodium berghei in mice (Mus musculus) at dosage of 80 mg/kg after subcutaneous administration; assay type: functional
Mus musculus [31] = assay: Antimalarial effect against trophozoite induced Plasmodium berghei in mice (Mus musculus) at dosage of 160 mg/kg after subcutaneous administration; No. of mice (Mus musculus) surviving after 60 days 2; assay type: functional
Mus musculus [32] = assay: Number of mice cured at a dose of 320 mg/kg sc; assay type: functional; conditions: route subcutaneous
[33] = The ratio of SD90 of the quinine hydrochloride, to the SD90 of the test substance for the Dose of […] mg/kg; assay type: functional

CCOc1ccc(Nc2nc(NCCN(CC)CC)c3ccc(Cl)cc3n2)cc1CN1CCCC1
Ratio [1]: <2.2 | SD90 (Plasmodium berghei [2]): >34 mg/kg/day

CCN1CCC(CNc2nc(Nc3ccc(C(F)(F)F)cc3)c3ccccc3n2)CC1
MST (Plasmodium berghei [3]): 0.5 days | MST (Plasmodium berghei [4]): 0.3 days | MST (Plasmodium berghei [5]; 80 mg/kg): 0.5 days and 0.7 days | MST (Mus musculus [6]): 9.4 days | MST (Plasmodium berghei [7]): 3.9 days | No. of survivals (Mus musculus [8]): 3 | MST (Plasmodium berghei [9]): 21.9 days | MST (Plasmodium berghei [10]): 8.9 days | No. of survivals (Mus musculus [11]): 4 | MST (Plasmodium berghei [12]): 7.3 days | No. of survivals (Mus musculus [13]): 1

CCOc1ccc(Nc2nc(NCCN(CC)CC)c3cc(Cl)ccc3n2)cc1CN(CC)CC
MST (Plasmodium berghei [3]): 0.8 days | MST (Plasmodium berghei [4]): 0.2 days | No. of toxic deaths (Mus musculus [14]): 5 | MST (Plasmodium berghei [5]): 3.2 days | MST (Plasmodium berghei [7]): 4.3 days | Ratio [15]: 1.6 | MST (Mus musculus [16]): 5.8 days | No. of toxic deaths (Mus musculus [17]): 1 | No. of toxic deaths (Mus musculus [18]): 4 | SD90 (Plasmodium berghei [2]): 45 mg/kg/day

CN(C)C1CCC(Nc2nc(Nc3ccc(Cl)c(Cl)c3)nc3ccccc23)CC1 (stereo in doubt; 23)
MST (Plasmodium berghei [3]; 40 mg/kg): 9.7 days and 9.9 days | MST (Mus musculus [19]): 25.4 days | MST (Plasmodium berghei [4]; 20 mg/kg): 0.9 days | MST (Plasmodium berghei [7]; 160 mg/kg): 27.4 days | No. of survivals (Mus musculus [11]): 5 | MST (Mus musculus [20]): 25.9 days | No. of survivals (Mus musculus [13]; 160 mg/kg): 3 | Ratio [21]: 8.8 | SD90 (Plasmodium berghei [2]): 8.5 mg/kg/day

Clc1ccc(Nc2nc(NCCN3CCCC3)c3ccccc3n2)cc1
MST (Mus musculus [22]): 6.1 days | MST (Plasmodium berghei [3]; 40 mg/kg): 0.7 days and 1.1 days | MST (Plasmodium berghei [4]): 0.1 days | MST (Plasmodium berghei [5]): 1.1 days | MST (Plasmodium berghei [9]): 25.4 days | MST (Plasmodium berghei [10]): 18.2 days | No. of cured (Mus musculus [23]; 640 mg/kg): 3 and 1 | MST (Plasmodium berghei [12]): 6.7 days | MST (Mus musculus [24]): 24.6 days | SD90 (Plasmodium berghei [2]): 68 mg/kg/day | Ratio [25]: 1.1

Clc1cc(Cl)cc(Nc2nc(NCCN3CCCC3)c3ccccc3n2)c1
MST (Plasmodium berghei [3]; 40 mg/kg): 0.9 days and 1.3 days | MST (Plasmodium berghei [4]): 0.5 days | MST (Plasmodium berghei [5]): 1.7 days | MST (Plasmodium berghei [10]): 5.9 days | MST (Plasmodium berghei [26]): 10.7 days and 10.3 days | MST (Plasmodium berghei [12]; 160 mg/kg): 3.5 days and 4.1 days | SD90 (Plasmodium berghei [2]): 80 mg/kg/day | Ratio [27]: 0.9

CCN(CC)CCNc1nc(NCc2ccc(Cl)c(Cl)c2)nc2ccccc12
No. of toxic deaths (Mus musculus [28]): 1 | MST (Plasmodium berghei [3]): 0.7 days | No. of toxic deaths (Mus musculus [14]): 5 | MST (Plasmodium berghei [7]): 0.9 days

CCN(CC)Cc1cc(Nc2nc(NC3CCC(N(C)C)CC3)c3ccccc3n2)ccc1OC (centres undefined)
MST (Plasmodium berghei [3]; 40 mg/kg): 7.7 days and 7.2 days | MST (Plasmodium berghei [4]): 7.5 days | No. of toxic deaths (Mus musculus [14]): 5 | Ratio [29]: 0.5 | MST (Mus musculus [30]): 13 days | MST (Plasmodium berghei [7]): 13 days | MST (Mus musculus [31]): 16.3 days | No. of cured (Mus musculus [23]): 3 | No. of toxic deaths (Mus musculus [18]): 5 | SD90 (Plasmodium berghei [2]): 155 mg/kg/day

CCN(CC)C1CCC(Nc2nc(Nc3cc(Br)cc(Br)c3)nc3ccccc23)CC1 (centres undefined)
MST (Plasmodium berghei [3]; 40 mg/kg): 1.1 days and 0.7 days | MST (Plasmodium berghei [4]): 0.3 days | MST (Plasmodium berghei [5]): 4.3 days | No. of cured (Mus musculus [32]): 2 | MST (Plasmodium berghei [10]): 26.2 days | No. of cured (Mus musculus [23]): 5 | MST (Plasmodium berghei [12]; 160 mg/kg): 8.7 days and 9.1 days | SD90 (Plasmodium berghei [2]): 3.3 mg/kg/day | Ratio [33]: 2.3
